Read-outs that look alike come from different tables or passages of the source.
Key:
HTLV-III = assay: Anti-AIDS activity, infected cell rate of MT-4 cells infected with HTLV-III at the 6th day (Example 9); type: cell-based; conditions: for anti-AIDS virus activity, in words: Example 9
Protocol: To MT-4 cells (30×10^4 /ml) cultured in RPMI-1640 medium containing 10% bovine serum, was inoculated HTLV-III, and the suspension was incubated at 37° C. for 1 hour to cause the adsorption of the virus. The cell:virus ratio was 500:1. The cells were then washed, and cultured with or without various doses of the test substances (same as those of Example 1) at 37° C. under 5% CO2 for 3 days, after which cell growth, viability, and percentage of infected cells were recorded. The infected cells were distinguished from the uninfected cells by an indirect immuno-fluorescence method. Thus, the cultured cells were fixed with cold methanol on a slide glass, reacted with antibody to the HTLV-III-specific antigens, and further with the secondary antibody (having a fluororescent label). The results are shown in FIGS. 9-29, wherein, .gradient., .increment. and .quadrature. show the controls without virus, and show the infection experiments with HTLV-III. The cell growth is indicated in number of cells, the viability (%) in number of viable cells ×100/number of total cells, and the infected cell rate (%) in number of fluorescent-positive cells x 100/number of total cells.
In order to examine the correlation between the anti-AIDS virus activity and the molecular structure (especially, molecular weight and S-content or number of sulfate group in this case) of various test substances including those used in Examples 1-7, the anti-AIDS activities were evaluated for the various naturally occurring polysaccharides, polysaccharides having a sulfate group, mucopolysaccharides, mucopolysaccharide sulfate, and mucopolysaccharide polysulfate. Further, similar experiments were carried out with various other sulfates which were synthetically obtained. The experimental procedures employed are identical to that in the preceding experiments. The cultured MT-4 cells were infected with HTLV-III and the inhibitory effects of various test substances on the infected cell rate (number of fluorescent cell×100/ total cell, %) were determined at the 6th day.

MT-4 cells = assay: Cytotoxicity, MT-4 cells cultured without virus (Examples 4 and 8); type: cell-based, human; conditions: without virus; for Viability: 0 μg/ml gives 87; for Cell number: 0 μg/ml gives 124
Source text: The cell:virus ratio was 500:1. […] The infected cells were distinguished from the uninfected cells by an indirect immuno-fluorescence method. Thus, the cultured cells were fixed with cold methanol on a slide glass, reacted with antibody to the HTLV-III-specific antigens, and further with the secondary antibody (having a fluororescent label). […] The cell growth is indicated in number of cells, the viability (%) in number of viable cells ×100/number of total cells, and the infected cell rate (%) in number of fluorescent-positive cells x 100/number of total cells.

[1] = test system: reverse transcriptase (authentic sample) derived from Avian Myeloblastosis Virus; assay: Inhibition of reverse transcriptase activity (AMV), Examples 1 and 5; type: biochemical; conditions: FIGS. 30-33
Protocol: Test substances were assayed for inhibition against the enzyme activity of reverse transcriptase (authentic sample) derived from Avian Myeloblastosis Virus (abbrev. AMV), a kind of retrovirus. Five microliters of […] (template RNA), 4 μl of (dT)12-18 (primer DNA), and 1 μl of water were mixed with 5 μl of 0.5M Tris-HCl (pH 8.4) including 0.1% triton X-100, 5 μl of […], 5 μl of 20 […], 5 μl of water, and [^3 H]-TTP (tritium labeled thymidine triphosphate). To this mixture, test substances in solutions (final concentrations: 1, 0.1, and 0.01 μg/ml, 5 μl) or buffer solutions (control, 5 μl) at various doses were added. Then, 5 μl (one unit) of the authentic reverse transcriptase derived from AMV was added and the reaction mixture was incubated at 37° C. for 30 minutes. The reaction was stopped by addition of trichloroacetic acid, and after filtering the reaction mixture, the radioactivity of the polymerized (3H-T)n retained on the filter was measured using a liquid scintilation counter. As the test substances, sodium dextran sulfate (molecular weight: 5000), same (molecular weight: 8000), same (molecular weight: 500000), fucoidin, κ-carrageenan, λ-carrageenan, and .iota.-carrageenan were used.
The effects of the test substances on the reverse transcriptase activity of AMV were evaluated by the method described in Example 1.

mice = conditions: cited from earlier work
[2] = 10 μg/ml, 6th day, control without test substance 100%
[3] = 100 μg/ml, 6th day, control without test substance 100%
[4] = 10 μg/ml, 6th day, control without test substance 100%, 8640 min
[5] = 100 μg/ml, 6th day, control without test substance 100%, 8640 min
[6] = 1000 μg/ml, 6th day, control without test substance 100%
[7] = 1 μg/ml, listed as Sodium dextran sulfate (molecular weight: 5000, S-content: 13%)
[8] = 10 μg/ml, listed as Sodium dextran sulfate (molecular weight: 5000, S-content: 13%)
[9] = 100 μg/ml, listed as Sodium dextran sulfate (molecular weight: 5000, S-content: 13%)

| Compound | Infected cell (%) (HTLV-III; [2]) | Infected cell (%) (HTLV-III; [3]) | anti-AIDS virus activity, in words (HTLV-III) | further results |
| --- | --- | --- | --- | --- |
| Chitosan [reference compound] | 100 | 100 |  |  |
| Hyaluronic acid [reference compound] | 100 | 100 |  |  |
| Dextran sulfate [Dextran sulfate 3,500] |  |  |  | Infected cell (%) (HTLV-III; [4]): 100%; Infected cell (%) (HTLV-III; [5]): 82%; Infected cell (%) (HTLV-III; [6]): 1% |
| Chondroitin-6-sulfate polysulfate | 2 | 1 | particularly strong |  |
| λ-Carrageenan | 3 | 1 | particularly strong | Viability (MT-4 cells; 1 μg/ml): 89%; Cell number (MT-4 cells; 1 μg/ml): 147 ×10^4 cells/ml; Viability (MT-4 cells; 10 μg/ml): 94%; Cell number (MT-4 cells; 10 μg/ml): 203 ×10^4 cells/ml; Viability (MT-4 cells; 100 μg/ml): 94%; Cell number (MT-4 cells; 100 μg/ml): 83 ×10^4 cells/ml |
| Chondroitin [reference compound] | 100 | 100 |  |  |
| O=C[C@H](O)[C@@H](O)[C@H](O)[C@H](O)COS(=O)(=O)O [Glucose-6-sulfate, reference compound] |  |  |  | activity at 10 µg/mL (HTLV-III; Human immunodeficiency virus 1, MT4, 144 h, 10 μg/ml, 6th day, control without test substance 100%): 100%; activity at 100 µg/mL (HTLV-III; Human immunodeficiency virus 1, MT4, 144 h, 100 μg/ml, 6th day, control without test substance 100%): 100%; activity at 1000 µg/mL (HTLV-III; Human immunodeficiency virus 1, MT4, 144 h, 1000 μg/ml, 6th day, control without test substance 100%): 100% |
| Chondroitin-4-sulfate [reference compound] | 100 | 100 |  |  |
| Dextran sulfate [Dextran sulfate 5,000] |  |  |  | Viability (MT-4 cells; [7]): 90%; Cell number (MT-4 cells; [7]): 123 ×10^4 cells/ml; Viability (MT-4 cells; [8]): 92%; Cell number (MT-4 cells; [8]): 127 ×10^4 cells/ml; Viability (MT-4 cells; [9]): 93%; Cell number (MT-4 cells; [9]): 121 ×10^4 cells/ml; Infected cell (%) (HTLV-III; [4]): 18%; Infected cell (%) (HTLV-III; [5]): 0% |
| Chondroitin polysulfate | 3 | 1 | particularly strong | reverse transcriptase inhibitory activity compared with the natural substances [1]: stronger activity |
| Chitosan sulfate | 1 | 1 | particularly strong |  |
| Chitin sulfate | 100 | 81 |  |  |
| pectin [reference compound] |  |  | None |  |
| methylcellulose [reference compound] |  |  | None |  |
| Keratan sulfate [reference compound] | 100 | 80 |  |  |
| OC[C@H]1O[C@H](OC[C@H]2O[C@H](O[C@]3(CO)O[C@H](CO)[C@@H](O)[C@@H]3O)[C@H](O)[C@@H](O)[C@@H]2O)[C@H](O)[C@@H](O)[C@H]1O [raffinose, reference compound] |  |  | None |  |
| colominic acid [reference compound] |  |  | None |  |
| Heparitin sulfate [reference compound] | 100 | 90 |  |  |
| Alginic acid [reference compound] | 100 | 100 |  |  |

| Compound | Infected cell (%) (HTLV-III; [2]) | Infected cell (%) (HTLV-III; [3]) | anti-AIDS virus activity, in words (HTLV-III) | further results |
| --- | --- | --- | --- | --- |
| Chondroitin-6-sulfate [reference compound] | 100 | 100 |  |  |
| Glucose-polysulfate [reference compound] | 100 | 100 |  | Infected cell (%) (HTLV-III; [6]): 100% |
| N-acetylglucosamine polysulfate [reference compound] | 100 | 100 |  | Infected cell (%) (HTLV-III; [6]): 100% |
| Hyaluronic acid sulfate | 100 | 70 |  |  |
| κ-Carrageenan | 95 | 1 |  | Viability (MT-4 cells; 1 μg/ml): 93%; Cell number (MT-4 cells; 1 μg/ml): 147 ×10^4 cells/ml; Viability (MT-4 cells; 10 μg/ml): 93%; Cell number (MT-4 cells; 10 μg/ml): 149 ×10^4 cells/ml; Viability (MT-4 cells; 100 μg/ml): 92%; Cell number (MT-4 cells; 100 μg/ml): 111 ×10^4 cells/ml |
| Dextran sulfate [Dextran sulfate 8,000] |  |  |  | Infected cell (%) (HTLV-III; [4]): 25%; Infected cell (%) (HTLV-III; [5]): 0% |
| Alginic acid sulfate | 7 | 4 | particularly strong |  |
| Dextran sulfate [Dextran sulfate 500,000] |  |  |  | Infected cell (%) (HTLV-III; [4]): 20%; Infected cell (%) (HTLV-III; [5]): 0% |
| dextran sulfate |  |  | particularly strong |  |
| .iota.-Carrageenan | 100 | 31 |  | Viability (MT-4 cells; 1 μg/ml): 94%; Cell number (MT-4 cells; 1 μg/ml): 135 ×10^4 cells/ml; Viability (MT-4 cells; 10 μg/ml): 93%; Cell number (MT-4 cells; 10 μg/ml): 128 ×10^4 cells/ml; Viability (MT-4 cells; 100 μg/ml): 80%; Cell number (MT-4 cells; 100 μg/ml): 144 ×10^4 cells/ml |
| Keratan polysulfate | 80 | 40 |  | reverse transcriptase inhibitory activity compared with the natural substances [1]: stronger activity |
| Dermatan sulfate [reference compound] | 100 | 80 |  |  |
| inulin [reference compound] |  |  | None |  |
| Chitin [reference compound] | 100 | 100 |  |  |
| Chondroitin-4-sulfate polysulfate | 2 | 1 | particularly strong |  |
| Fucoidin | 32 | 1 |  | Viability (MT-4 cells; 1 μg/ml): 92%; Cell number (MT-4 cells; 1 μg/ml): 141 ×10^4 cells/ml; Viability (MT-4 cells; 10 μg/ml): 99%; Cell number (MT-4 cells; 10 μg/ml): 112 ×10^4 cells/ml; Viability (MT-4 cells; 100 μg/ml): 93%; Cell number (MT-4 cells; 100 μg/ml): 71 ×10^4 cells/ml |
| Agarose [reference compound] | 100 | 100 |  |  |
| sodium chondroitin sulfate |  |  |  | acute toxicity (LD50) (mice; intraperitoneally): ≥ 4,000 mg/kg; acute toxicity (LD50) (mice; orally): ≥ 7,500 mg/kg |
| Dextran [Dextran 9,000, reference compound] | 100 | 100 |  |  |

Reference: patent US5100879A, “Method of topically cleansing the human body” (K.K. Ueno Seiyaku Oyo Kenkyujo, priority 1987, dated 1992)
